Earlier results in patent US8216495B2, “Preparation method for solid dispersions” (Formac Pharmaceuticals N.V., priority 2008, dated 2012).
Values after ≈ are worked out from the molar mass of the structure shown. Each block holds one compound with its values, some of them ahead of it.

What was measured:
[1] = weak base
[2] = not given; remark: listed apart in the source

aqueous solubility (pH=1): 4 µg/mL (≈ 5.67 µM) | pKa [1]: 4.0
Compound: CCC(C)n1ncn(-c2ccc(N3CCN(c4ccc(OCC5COC(Cn6cncn6)(c6ccc(Cl)cc6Cl)O5)cc4)CC3)cc2)c1=O (stereo not drawn) [Itraconazole]

absolute bioavailability ([2]; 5 mg dose taken twice a day, oral): approximately 17% | solubility in ethanol (ethanol): freely soluble | solubility in methanol and chloroform (methanol and chloroform): very soluble | solubility in water: practically insoluble
Compound: C=CC[C@@H]1/C=C(\C)C[C@H](C)C[C@H](OC)[C@H]2O[C@@](O)(C(=O)C(=O)N3CCCC[C@H]3C(=O)O[C@H](/C(C)=C/[C@@H]3CC[C@@H](O)[C@H](OC)C3)[C@H](C)[C@@H](O)CC1=O)[C@H](C)C[C@@H]2OC [Tacrolimus]

solubility in water: insoluble
Compound: CC(=O)O[C@H]1C(=O)[C@@]2(C)[C@H]([C@H](OC(=O)c3ccccc3)[C@]3(O)C[C@H](OC(=O)[C@H](O)[C@@H](NC(=O)c4ccccc4)c4ccccc4)C(C)=C1C3(C)C)[C@]1(OC(C)=O)CO[C@@H]1C[C@@H]2O [Paclitaxel]

solubility in alcohol and acetone (alcohol and acetone): soluble | solubility in water: practically insoluble
Compound: NC(=O)N1c2ccccc2C=Cc2ccccc21 [Carbamazepine, 5H-dibenz[b,f]azepine-5-carboxamide]

half-life ([2]; danazol administered orally): 4 to 5 h | increase in plasma concentration on doubling the dose ([2]; danazol administered orally): 30-40% | time of peak concentrations ([2]; danazol administered orally): ≤ 2 h
Compound: C#C[C@]1(O)CC[C@H]2[C@@H]3CCC4=Cc5oncc5C[C@]4(C)[C@H]3CC[C@@]21C [Danazol, 17a-Pregna-2,4-dien-20-yno[2,3-d]-isoxazol-17-ol]
